Assay results: US6492383B1, “Thienopyrimidine and thienopyridine derivatives useful as anticancer agents” (Pfizer Inc., priority 1998, dated 2002)
Where a name gives a salt, the structure may show the parent alone.

SMILES | melting point
COC(=O)CCNCc1ccc(-c2cc3ncnc(Nc4ccc5[nH]ccc5c4)c3s2)cc1 (as salt: HCl) [Example 17, 3-{4-[4-(1H-Indol-5-ylamino)-thieno[3,2-d]pyrimidin-6-yl]-benzylamino}-propionic Acid Methyl Ester] | 105 to 118 °C
Cc1cccc(Nc2ncnc3cc(-c4ccccc4)sc23)c1 (as salt: HCl) [Example 92, (6-Phenyl-thieno[3,2-d]pyrimidin-4-yl)-m-tolyl-amine] | 238 to 241 °C
CNCc1ccc(-c2cc3ncnc(Nc4ccc5[nH]ccc5c4)c3s2)cc1 (as salt: mesylate) [Example 25, (1H-Indol-5-yl)-[6-(4-methylaminomethyl-phenyl)-thieno[3,2-d]pyrimidin-4-yl]-amine] | 140 to 147 °C
CN1CCN(Cc2ccc(-c3cc4ncnc(Nc5ccc6[nH]ccc6c5)c4s3)cc2)CC1 (as salt: mesylate) [Example 26, (1H-Indol-5-yl)-{6-[4-(4-methyl-piperazin-1-ylmethyl)-phenyl]-thieno[3,2-d]pyrimidin-4-yl}-amine] | 143 to 150 °C
OCCN(CCO)Cc1ccc(-c2cc3ncnc(Nc4ccc5[nH]ccc5c4)c3s2)cc1 (as salt: mesylate) [Example 29, 2-((2-Hydroxy-ethyl)-{4-[4-(1H-indol-5-ylamino)-thieno[3,2-d]pyrimidin-6-yl]-benzyl}-amino)-ethanol] | 110 to 127 °C
OCCOCCNCc1ccc(-c2cc3ncnc(Nc4ccc5[nH]ccc5c4)c3s2)cc1 (as salt: mesylate) [Example 30, 2-(2-(4-[4-(1H-Indol-5-ylamino)-thieno[3,2-d]pyrimidin-6-yl]-benzylamino}-ethoxy)-ethanol] | 111 to 119 °C
OCCNCCNCc1ccc(-c2cc3ncnc(Nc4ccc5[nH]ccc5c4)c3s2)cc1 (as salt: mesylate) [Example 31, 2-(2-{4-[4-(1H-indol-5-ylamino)-thieno[3,2-d]pyrimidin-6-yl]-benzylamino}-ethylamino)-ethanol] | 78 to 95 °C
c1csc(CNCc2ccc(-c3cc4ncnc(Nc5ccc6[nH]ccc6c5)c4s3)cc2)c1 (as salt: mesylate) [Example 33, (1H-Indol-5-yl)-[6-(4-{[(thiophen-2-ylmethyl)-amino]-methyl}-phenyl)-thieno[3,2-d]pyrimidin-4-yl]-amine] | 111 to 121 °C
c1ccc(-c2cc3ncnc(Nc4ccc5[nH]ccc5c4)c3s2)cc1 [Example 2, (1H-indol-5-yl)-(6-phenyl-thieno[3,2-d]pyrimidin-4-yl)-amine] | 255 to 258 °C (dec.)
Clc1ccc(-c2cc3ncnc(Nc4ccc5[nH]ccc5c4)c3s2)cc1 [Example 3, [6-(4-Chloro-phenyl)-thieno[3,2-d]pyrimidin-4-yl]-(1H-indol-5-yl)-amine] | 190 to 210 °C
Fc1ccc(-c2cc3ncnc(Nc4ccc5[nH]ccc5c4)c3s2)cc1 [Example 4, [6-(4-Fluoro-phenyl)-thieno[3,2-d]pyrimidin-4-yl]-(1H-indol-5-yl)-amine] | 193 to 205 °C
COc1ccc(-c2cc3ncnc(Nc4ccc5[nH]ccc5c4)c3s2)cc1 [Example 5, (1H-Indol-5-yl)-[6-(4-methoxy-phenyl)-thieno[3,2-d]pyrimidin-4-yl]-amine] | 150 to 180 °C
Cc1ccc(-c2cc3ncnc(Nc4ccc5[nH]ccc5c4)c3s2)cc1 [Example 6, (1H-Indol-5-yl)-(6-p-tolyl-thieno[3,2-d]pyrimidin-4-yl)-amine] | 200 to 220 °C
c1nc(Nc2ccc3[nH]ccc3c2)c2sc(-c3ccsc3)cc2n1 [Example 8, (1H-indol-5-yl)-(6-thiophen-3-yl-thieno[3,2-d]pyrimidin-4-yl)-amine] | 178 to 189 °C
CSc1ccc(-c2cc3ncnc(Nc4ccc5[nH]ccc5c4)c3s2)cc1 [Example 9, (1H-Indol-5-yl)-[6-(4-methylsulfanyl-phenyl)-thieno[3,2-d]pyrimidin-4-yl]-amine] | 163 to 178 °C
O=[N+]([O-])c1cccc(-c2cc3ncnc(Nc4ccc5[nH]ccc5c4)c3s2)c1 [Example 10, (1H-Indol-5-yl)-[6-(3-nitro-phenyl)-thieno[3,2-d]pyrimidin-4-yl]-amine] | 175 to 183 °C
Fc1ccc(-c2cc3ncnc(Nc4ccc5[nH]ccc5c4)c3s2)cc1Cl [Example 12, [6-(3-Chloro-4-fluoro-phenyl)-thieno[3,2-d]pyrimidin-4-yl]-(1H-indol-5-yl)-amine] | 175 to 183 °C
CCc1ccc(-c2cc3ncnc(Nc4ccc5[nH]ccc5c4)c3s2)cc1 [Example 13, [6-(4-Ethyl-phenyl)-thieno[3,2-d]pyrimidin-4-yl]-(1H-indol-5-yl)-amine] | 171 to 182 °C
COc1ccc(-c2cc3ncnc(Nc4ccc5[nH]ccc5c4)c3s2)cc1OC [Example 16, [6-(3,4-Dimethoxy-phenyl)-thieno[3,2-d]pyrimidin-4-yl]-(1H-indol-5-yl)-amine] | 171 to 178 °C
CN(C)CCNCc1ccc(-c2cc3ncnc(Nc4ccc5[nH]ccc5c4)c3s2)cc1 [Example 18, N-{4-[4-(1H-Indol-5-ylamino)-thieno[3,2-d]pyrimidin-6-yl]-benzyl}-N′,N′-dimethyl-ethane-1,2-diamine] | 170 to 183 °C
CCCNCc1ccc(-c2cc3ncnc(Nc4ccc5[nH]ccc5c4)c3s2)cc1 [Example 21, (1H-Indol-5-yl)-[6-(4-propylaminomethyl-phenyl)-thieno[3,2-d]pyrimidin-4-yl]-amine] | 190 to 205 °C
COCCCNCc1ccc(-c2cc3ncnc(Nc4ccc5[nH]ccc5c4)c3s2)cc1 [Example 22, (1H-Indol-5-yl)-(6-{4-[(3-methoxy-propylamino)-methyl]-phenyl}-thieno[3,2-d]pyrimidin-4-yl)-amine] | 160 to 175 °C
c1nc(Nc2ccc3[nH]ccc3c2)c2sc(-c3ccc(CNCCN4CCNCC4)cc3)cc2n1 [Example 23, (1H-Indol-5-yl)-(6-{4-[(2-piperazin-1-yl-ethylamino)-methyl]-phenyl}-thieno[3,2-d]pyrimidin-4-yl)-amine] | 178 to 191 °C
c1nc(Nc2ccc3[nH]ccc3c2)c2sc(-c3ccc(CNCCN4CCOCC4)cc3)cc2n1 [Example 24, (1H-Indol-5-yl)-(6-{4-[(2-morpholin-4-yl-ethylamino)-methyl]-phenyl}-thieno[3,2-d]pyrimidin-4-yl)-amine] | 100 to 111 °C
c1coc(CNCc2ccc(-c3cc4ncnc(Nc5ccc6[nH]ccc6c5)c4s3)cc2)c1 [Example 34, [6-(4-{[(Furan-2-ylmethyl)-amino]-methyl}-phenyl)-thieno[3,2-d]pyrimidin-4-yl]-(1H-indol-5-yl)-amine] | 125 to 134 °C
O=C1CCCN1CCCNCc1ccc(-c2cc3ncnc(Nc4ccc5[nH]ccc5c4)c3s2)cc1 [Example 35, 1-(3-{4-[4-(1H-Indol-5-ylamino)-thieno[3,2-d]pyrimidin-6-yl]-benzylamino}-propyl)-pyrrolidin-2-one] | 139 to 146 °C
CN(C)CCCNCc1ccc(-c2cc3ncnc(Nc4ccc5[nH]ccc5c4)c3s2)cc1 [Example 36, N-{4-[4-(1H-Indol-5-ylamino)-thieno[3,2-d]pyrimidin-6-yl]-benzyl}-N′,N′-dimethyl-propane-1,3-diamine] | 148 to 160 °C
